# Values quoted from earlier work in patent publication US20150275302A1, “DETERMINATION OF SINGLE NUCLEOTIDE POLYMORPHISMS USEFUL TO PREDICT RESPONSE FOR RASAGILINE” (TEVA PHARMACEUTICAL INDUSTRIES, LTD., priority 2014, published 2015).
# Settings: in vivo
smiles,measurement,value
"C#CCN[C@@H]1CCc2ccccc21 [rasagiline, R(+)-N-propargyl-l-aminoindan]",absolute bioavailability,about 36%
